Laboratory results taken from patent publication US10870625B2, “Zwitterionic propargyl-linked antifolates useful for treating bacterial infections” (THE UNIVERSITY OF CONNECTICUT, priority 2016, dated 2020).
≈ marks a conversion by molar mass, not a printed value. Where two headings read alike, the source gives them in different places. Marks after values point to notes of the source that are not given here.

What was measured:
[1] = tested on: S. aureus ATCC strain 43300; experiment: microbe, parasite or virus in culture; format: cell-based, Staphylococcus aureus; settings: for MIC Sa43300: Table 12, wild-type strain
[2] = tested on: Sa(H30N) strain
[3] = tested on: E. coli NR698; format: cell-based, Escherichia coli
[4] = tested on: E. coli (ATCC 25922); experiment: E. coli MIC, microdilution broth assay; format: cell-based, Escherichia coli
Experimental: Minimum inhibitory concentrations were determined using E. coli (ATCC 25922) and the microdilution broth assay with an inoculum of […] CFU/mL in Isosensitest Broth (Oxoid).

[5] = tested on: Mtb 352; format: cell-based, Mycobacterium tuberculosis; settings: MDR strain
[6] = molecular target: MtbDHFR (Mycobacterium tuberculosis (strain ATCC 25618 / H37Rv), UniProt P9WNX1); experiment: M. tuberculosis DHFR enzyme inhibition; format: biochemical
[7] = tested on: Mtb; experiment: M. tuberculosis MIC, microtiter broth dilution (Table 6); format: cell-based, Mycobacterium tuberculosis
Experimental: (§1) (provided by Leonid Heifets).
(§2) Each isolate was tested in duplicate.

[8] = tested on: Mtb 5; format: cell-based, Mycobacterium tuberculosis; settings: XDR strain
[9] = tested on: Mtb C-31; format: cell-based, Mycobacterium tuberculosis; settings: MDR strain
[10] = tested on: Mtb Erdman; experiment: Mtb Erdman MIC, microtiter broth dilution; format: cell-based, Mycobacterium tuberculosis
Experimental: as §1, §2

[11] = tested on: Mtb 56; format: cell-based, Mycobacterium tuberculosis; settings: MDR strain
[12] = tested on: Mtb 365; format: cell-based, Mycobacterium tuberculosis; settings: MDR strain
[13] = tested on: Mtb 276; format: cell-based, Mycobacterium tuberculosis; settings: MDR strain
[14] = molecular target: S. aureus (Sa) DHFR (Staphylococcus aureus, UniProt P0A017); format: biochemical; settings: Table 2
[15] = molecular target: E. coli (Ec) DHFR (Escherichia coli (strain K12), UniProt P0ABQ4); experiment: E. coli DHFR enzyme inhibition (NADPH oxidation, 340 nm); format: biochemical
[16] = tested on: Sa43300; settings: previously reported studies, S. aureus 43300; cited from earlier work
[17] = tested on: Sa(H30N) strain; experiment: microbe, parasite or virus in culture; settings: Staphylococcus aureus, read-out: MIC Sa(H30N)
[18] = tested on: Sa43300; format: cell-based, Staphylococcus aureus; settings: progenitor Sa43300, 6× MIC

CCc1nc(N)nc(N)c1C#CC(C)c1cc2c(c(-c3ccncc3)c1)OCO2 (stereo not shown) [F, reference compound]
MIC Sa43300 [1]: 0.0195 µg/mL (≈ 0.0503 µM)
MIC Sa(H30N) [2]: 2.5 µg/mL (≈ 6.45 µM)

CCc1nc(N)nc(N)c1C#C[C@H](C)c1cc(OC)cc(-c2ccc(C(=O)O)cc2)c1 [Compound 31]
MIC S. aureus 43300 [1]: 0.0098 µg/mL (≈ 0.0235 µM)
MIC Sa43300 [1]: 0.0098 µg/mL (≈ 0.0235 µM)
MIC E. coli NR698 ([3]; Table 2): 0.0024 µg/mL (≈ 0.00576 µM)
MIC Sa(H30N) [2]: 0.0781 µg/mL (≈ 0.188 µM)
MIC E. coli 25922 ([4]; Table 2, wild-type E. coli): 10 µg/mL (≈ 24 µM)

CCc1nc(N)nc(N)c1C#CC(C)c1cc(OC)cc(-c2ccncc2)c1 (stereo not shown) [Compound D, reference compound]
MIC Sa43300 [1]: 0.0391 µg/mL (≈ 0.105 µM)
MIC Sa(H30N) [2]: 0.625 µg/mL (≈ 1.67 µM)

CCc1nc(N)nc(N)c1C#C[C@@H](C)c1cc(-c2ccc(C(=O)O)cc2)ccc1OC [Compound 30]
MIC S. aureus 43300 [1]: 0.0195 µg/mL (≈ 0.0468 µM)
MIC E. coli NR698 ([3]; Table 2): 0.0012 µg/mL (≈ 0.00288 µM)
MIC E. coli 25922 ([4]; Table 2, wild-type E. coli): 20 µg/mL (≈ 48 µM)

CCc1nc(N)nc(N)c1C#C[C@H](C)c1cc2c(c(-c3ccncc3)c1)OCO2 [Compound 55]
MIC Mtb 352 [5]: 8 µg/mL (≈ 20.6 µM)
IC50 [6]: 206 nM
MIC Mtb [7]: 4 µg/mL (≈ 10.3 µM)
MIC Mtb 5 [8]: 8 µg/mL (≈ 20.6 µM)
MIC Mtb C-31 [9]: 16 µg/mL (≈ 41.3 µM)
MIC Mtb Erdman [10]: 8 µg/mL (≈ 20.6 µM)
MIC Mtb56 [11]: 8 µg/mL (≈ 20.6 µM)
MIC Mtb 365 [12]: 4 µg/mL (≈ 10.3 µM)
MIC Mtb 276 [13]: 8 µg/mL (≈ 20.6 µM)

CCc1nc(N)nc(N)c1C#C[C@@H](C)c1cc(-c2ccncc2)ccc1OC [E, reference compound]
MIC Sa43300 [1]: 0.0195 µg/mL (≈ 0.0522 µM)
MIC Sa(H30N) [2]: 0.625 µg/mL (≈ 1.67 µM)

CCc1nc(N)nc(N)c1C#CC(C)c1cc2c(c(-c3cncn3C)c1)OCO2 (stereo not shown) [Compound 54]
MIC Mtb 352 [5]: 4 µg/mL (≈ 10.2 µM)
MIC Mtb [7]: 2 µg/mL (≈ 5.12 µM)
MIC Mtb 5 [8]: 8 µg/mL (≈ 20.5 µM)
MIC Mtb C-31 [9]: 8 µg/mL (≈ 20.5 µM)
MIC Mtb Erdman [10]: 4 µg/mL (≈ 10.2 µM)
MIC Mtb56 [11]: 8 µg/mL (≈ 20.5 µM)
MIC Mtb 365 [12]: 8 µg/mL (≈ 20.5 µM)
MIC Mtb 276 [13]: 4 µg/mL (≈ 10.2 µM)

CCc1nc(N)nc(N)c1C#CCc1cc(-c2ccccc2C(=O)O)ccc1OC [Compound 14]
IC50 [6]: 311 nM
MIC Mtb [7]: 1 µg/mL (≈ 2.48 µM)
MIC S. aureus 43300 [1]: 0.625 µg/mL (≈ 1.55 µM)
MIC E. coli NR698 ([3]; Table 2): 0.0391 µg/mL (≈ 0.0972 µM)
IC50 [14]: 157 nM
IC50 ([15]; Table 2): 526 nM
MIC E. coli 25922 ([4]; Table 2, wild-type E. coli): >20 µg/mL

CCc1nc(N)nc(N)c1C#CCc1cc2c(c(-c3cc(F)c(OC)c(F)c3)c1)OCO2 [Compound 40]
MIC E. coli NR698 ([3]; Table 3): 0.78 µg/mL (≈ 1.78 µM)
IC50 ([15]; Table 3): > 20000 nM
MIC E. coli 25922 ([4]; Table 3): 5 µg/mL (≈ 11.4 µM)

CCc1nc(N)nc(N)c1C#C[C@H](C)c1cc(-c2ccc(C(=O)OC)cc2)ccc1OC [Compound 33]
MIC S. aureus 43300 ([1]; Table 2): 0.625 µg/mL (≈ 1.45 µM)
MIC E. coli NR698 ([3]; Table 2): 0.156 µg/mL (≈ 0.362 µM)
IC50 [14]: 22 nM
IC50 ([15]; Table 2): 34 nM
MIC E. coli 25922 ([4]; Table 2, wild-type E. coli): >20* μg/mL

CCc1nc(N)nc(N)c1C#CCc1ccc(OC)c(-c2ccc(C(=O)O)cc2)c1 [Compound 59]
MIC Mtb 352 [5]: 0.5 µg/mL (≈ 1.24 µM)
IC50 [6]: 460 nM
MIC Mtb [7]: 0.5 µg/mL (≈ 1.24 µM)
MIC Mtb 5 [8]: 2 µg/mL (≈ 4.97 µM)
MIC Mtb C-31 [9]: 8 µg/mL (≈ 19.9 µM)
MIC Mtb Erdman [10]: 0.5 µg/mL (≈ 1.24 µM)
MIC Mtb56 [11]: 0.5 µg/mL (≈ 1.24 µM)
MIC Mtb 365 [12]: 0.125 µg/mL (≈ 0.311 µM)

CCc1nc(N)nc(N)c1C#CC(C)c1cc2c(c(-c3ccncc3)c1)OCO2 (stereo not shown) [Compound B, reference compound]
MIC Sa43300 [1]: 0.0781 µg/mL (≈ 0.202 µM)
MIC Sa(H30N) [2]: 5 µg/mL (≈ 12.9 µM)

CCc1nc(N)nc(N)c1C#C[C@@H](C)c1cc(OC)cc(-c2ccc(C(=O)O)cc2)c1 [Compound 32]
MIC S. aureus 43300 [1]: 0.0098 µg/mL (≈ 0.0235 µM)
MIC Sa43300 [1]: 0.0098 µg/mL (≈ 0.0235 µM)
MIC E. coli NR698 ([3]; Table 2): 0.0024 µg/mL (≈ 0.00576 µM)
MIC Sa(H30N) [2]: 0.0781 µg/mL (≈ 0.188 µM)
MIC E. coli 25922 ([4]; Table 2, wild-type E. coli): 10 µg/mL (≈ 24 µM)

CCc1nc(N)nc(N)c1C#CC(C)c1cc(OC)cc(-c2ccncc2)c1 (stereo not shown) [Compound A]
MIC ([1]; Staphylococcus aureus, ATCC43300, read-out: MIC Sa43300): 0.0781 µg/mL (≈ 0.209 µM)
mutation frequencies of mutants F98Y and F98I [16]: 10^−10
MIC [17]: 2.5 µg/mL (≈ 6.69 µM)
Mutational Frequency of DHFR mutation F98Y [18]: 3.11 × 10^−11
Mutational Frequency of DHFR mutation H30N [18]: 4.67 × 10^−11
Mutational Frequency of DHFR mutation H149R [18]: 1.65 × 10^−10
